Assay results published in ChEMBL document CHEMBL1201862, “PubChem BioAssay data set” (2004).
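Tested at 5 concentrations; 48 h exposure; 96-well plates; endpoints linearly interpolated, else capped at highest concentration. GI50 is the concentration that inhibits growth by half.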 Calls of active or inactive are those of the source. Rule as the data show it: active = GI50 up to about 1.1 µM and inactive = higher.

Assays:
Test in all cases: inhibition of tumour cell growth, NCI panel, 48 h
MDA-N = system: MDA-N
NCI-H522 = system: NCI-H522
SR = system: SR
OVCAR-8 = system: OVCAR-8
SNB-19 = system: SNB-19
MDA-MB-231 = system: MDA-MB-231
Hs-578T = system: Hs-578T
HOP-92 = system: HOP-92
LOX IMVI = system: LOX IMVI
BT-549 = system: BT-549
HCT-15 = system: HCT-15
CAKI-1 = system: CAKI-1
OVCAR-3 = system: OVCAR-3
HCT-116 = system: HCT-116
KM12 = system: KM12
U-251 = system: U-251
K562 = system: K562
ACHN = system: ACHN
UACC-257 = system: UACC-257
SW-620 = system: SW-620
NCI-H226 = system: NCI-H226
DU-145 = system: DU-145
CCRF-CEM = system: CCRF-CEM
M14 = system: M14
T47D = system: T47D
SF-295 = system: SF-295
OVCAR-4 = system: OVCAR-4
SNB-75 = system: SNB-75
SK-MEL-2 = system: SK-MEL-2
MCF7 = system: MCF7
786-0 = system: 786-0
SF-539 = system: SF-539
COLO 205 = system: COLO 205
NCI/ADR-RES = system: NCI/ADR-RES
UO-31 = system: UO-31
OVCAR-5 = system: OVCAR-5
SN12C = system: SN12C
SF-268 = system: SF-268
SK-MEL-5 = system: SK-MEL-5
IGROV-1 = system: IGROV-1
SK-OV-3 = system: SK-OV-3
MOLT-4 = system: MOLT-4
A498 = system: A498
A549 = system: A549
HOP-62 = system: HOP-62
RPMI-8226 = system: RPMI-8226
HCC 2998 = system: HCC 2998
TK-10 = system: TK-10
EKVX = system: EKVX
NCI-H23 = system: NCI-H23
PC-3 = system: PC-3
MDA-MB-435 = system: MDA-MB-435
RXF 393 = system: RXF 393
Malme-3M = system: Malme-3M
HL-60 = system: HL-60
UACC-62 = system: UACC-62
HT-29 = system: HT-29
SK-MEL-28 = system: SK-MEL-28

## N#CC1=C(N)N(/N=C/c2ccco2)C(c2ccco2)C1(C#N)C#N (centres undefined)
MDA-N
  GI50: 18.4 µM (inactive)
NCI-H522
  GI50: 15.3 µM (inactive)
SR
  GI50: 16 µM (inactive)
OVCAR-8
  GI50: 19.7 µM (inactive)
SNB-19
  GI50: 20.4 µM (inactive)
MDA-MB-231
  GI50: 19.5 µM (inactive)
Hs-578T
  GI50: 22.2 µM (inactive)
HOP-92
  GI50: 16.6 µM (inactive)
LOX IMVI
  GI50: 14.2 µM (inactive)
BT-549
  GI50: 17.6 µM (inactive)
HCT-15
  GI50: 15.3 µM
CAKI-1
  GI50: 15.2 µM (inactive)
OVCAR-3
  GI50: 18.2 µM (inactive)
HCT-116
  GI50: 12.7 µM (inactive)
KM12
  GI50: 15.1 µM (inactive)
U-251
  GI50: 18.9 µM (inactive)
K562
  GI50: 5.7 µM (inactive)
ACHN
  GI50: 15.6 µM (inactive)
UACC-257
  GI50: 16.3 µM (inactive)
SW-620
  GI50: 11.2 µM (inactive)
NCI-H226
  GI50: 18.6 µM (inactive)
DU-145
  GI50: 17.7 µM (inactive)
CCRF-CEM
  GI50: 4.76 µM (inactive)
M14
  GI50: 20 µM (inactive)
T47D
  GI50: 12.4 µM (inactive)
SF-295
  GI50: 28.4 µM (inactive)
OVCAR-4
  GI50: 15.4 µM (inactive)
SNB-75
  GI50: 16.8 µM (inactive)
SK-MEL-2
  GI50: 24.1 µM (inactive)
MCF7
  GI50: 20.5 µM (inactive)
786-0
  GI50: 17.2 µM (inactive)
SF-539
  GI50: 22.1 µM (inactive)
COLO 205
  GI50: 14.2 µM (inactive)
NCI/ADR-RES
  GI50: 25.1 µM (inactive)
UO-31
  GI50: 18.6 µM (inactive)
OVCAR-5
  GI50: 20.3 µM (inactive)
SN12C
  GI50: 26.9 µM (inactive)
SF-268
  GI50: 24.6 µM (inactive)
SK-MEL-5
  GI50: 15.3 µM (inactive)
IGROV-1
  GI50: 14.6 µM (inactive)
SK-OV-3
  GI50: 33.7 µM (inactive)
MOLT-4
  GI50: 11.9 µM (inactive)
A498
  GI50: 16 µM (inactive)
A549
  GI50: 19.6 µM (inactive)
HOP-62
  GI50: 23.2 µM (inactive)
RPMI-8226
  GI50: 20.8 µM (inactive)
HCC 2998
  GI50: 19.4 µM (inactive)
TK-10
  GI50: 17.4 µM (inactive)
EKVX
  GI50: 19.5 µM (inactive)
NCI-H23
  GI50: 19.6 µM (inactive)
PC-3
  GI50: 23 µM (inactive)
MDA-MB-435
  GI50: 21.3 µM (inactive)
RXF 393
  GI50: 10.7 µM (inactive)
Malme-3M
  GI50: 18.9 µM (inactive)
HL-60
  GI50: 3.35 µM (inactive)
UACC-62
  GI50: 17.6 µM (inactive)
HT-29
  GI50: 14.2 µM (inactive)

## COc1cccc2c(N)c3cccc(C(=O)NCCN(C)C)c3nc12
MDA-N
  GI50: 0.321 µM (active)
NCI-H522
  GI50: 0.0241 µM (active)
SR
  GI50: 0.0152 µM (active)
OVCAR-8
  GI50: 0.134 µM (active)
SNB-19
  GI50: 0.134 µM (active)
MDA-MB-231
  GI50: 0.214 µM (active)
Hs-578T
  GI50: 0.0746 µM (active)
HOP-92
  GI50: 0.163 µM (active)
LOX IMVI
  GI50: 0.0513 µM (active)
BT-549
  GI50: 1.19 µM (inactive)
HCT-15
  GI50: 1.38 µM
CAKI-1
  GI50: 0.103 µM (active)
OVCAR-3
  GI50: 0.369 µM (active)
HCT-116
  GI50: 0.0748 µM (active)
KM12
  GI50: 0.252 µM (active)
U-251
  GI50: 0.159 µM (active)
K562
  GI50: 0.0415 µM (active)
ACHN
  GI50: 0.0991 µM (active)
UACC-257
  GI50: 0.701 µM (active)
SW-620
  GI50: 0.0968 µM (active)
NCI-H226
  GI50: 0.11 µM (active)
DU-145
  GI50: 0.261 µM (active)
CCRF-CEM
  GI50: < 0.01 µM (active)
M14
  GI50: 0.432 µM (active)
T47D
  GI50: 0.274 µM (active)
SF-295
  GI50: 0.297 µM (active)
OVCAR-4
  GI50: 0.157 µM (active)
SNB-75
  GI50: 0.0944 µM (active)
SK-MEL-2
  GI50: 0.447 µM (active)
MCF7
  GI50: 0.0146 µM (active)
786-0
  GI50: 0.0339 µM (active)
SF-539
  GI50: 0.135 µM (active)
COLO 205
  GI50: 0.13 µM (active)
NCI/ADR-RES
  GI50: 0.979 µM (active)
UO-31
  GI50: 0.462 µM (active)
OVCAR-5
  GI50: 0.344 µM (active)
SN12C
  GI50: 0.0389 µM (active)
SF-268
  GI50: 0.0659 µM (active)
SK-MEL-5
  GI50: 0.367 µM (active)
IGROV-1
  GI50: 0.22 µM (active)
SK-OV-3
  GI50: 0.233 µM (active)
MOLT-4
  GI50: < 0.01 µM (active)
SK-MEL-28
  GI50: 1.27 µM (inactive)
A498
  GI50: 0.281 µM (active)
A549
  GI50: 0.0233 µM (active)
HOP-62
  GI50: 0.0578 µM (active)
RPMI-8226
  GI50: 0.221 µM (active)
HCC 2998
  GI50: 0.179 µM (active)
TK-10
  GI50: 0.439 µM (active)
EKVX
  GI50: 0.174 µM (active)
NCI-H23
  GI50: 0.132 µM (active)
PC-3
  GI50: 0.326 µM (active)
MDA-MB-435
  GI50: 0.422 µM (active)
RXF 393
  GI50: 0.213 µM (active)
Malme-3M
  GI50: 0.0927 µM (active)
UACC-62
  GI50: 0.357 µM (active)
HT-29
  GI50: 0.053 µM (active)
